The subject of test [1] is CRF1R-mediated ERK1/2 phosphorylation. As to the kind of experiment: Modulation of CRF-stimulated ERK1/2 phosphorylation in COS-7 cells expressing HA-CRF1R. The class given is cell-based. To be noted: 30 min pretreatment, 100 nM CRF, 5 min. How it is done:
Plasmid pRK5 encoding the carboxyl terminus of βARK that contains its βγ-binding domain (ct-βARK) was kindly provided by Dr. W. Koch (Center for Translational Medicine, Temple University, Philadelphia, PA), which is a scavenger for G protein βγ subunits ([25]). […] Plasmid pUSEamp encoding dominant-negative Akt-K179M (dn-Akt) was from Upstate Biotechnology (Lake Placid, NY).
(§1) COS-7 cells (from the American Type Culture Collection) were cultured at 37°C in a humidified atmosphere of 95% air, 5% CO2, in DMEM supplemented with 10% FBS, 100 μg/ml streptomycin, and 100 units/ml penicillin (COS-7 growth medium). Transient transfections were performed using LipofectAMINE (Life Technologies: Gaithersburg, MD) as described previously ([27]). Cells were seeded at 8 × 10^5 cells/10-cm dish in COS-7 medium and cultured for 3 days before transfection. COS-7 cells were transfected in 5 ml/dish OptiMEM containing 10 μg/ml LipofectAMINE with empty vector, pcDNA3 encoding the HA-CRF1R or the HA-CRF1R-Δ386 mutant. […] After replacing the transfection medium with fresh growth medium, transfected COS-7 cells were cultured for 1 day. Subsequently, cells were re-seeded in 6-well plates and cultured for an additional day prior to the experiment.
(§2) The protocols for measuring total and phosphorylated ERK1/2, c-Src, PYK2, Akt, and EGFR have been previously published ([28], [29]). After cells were cultured to 60–70% confluence, they were serum-deprived for 24 h. On the day of the experiment, cells were treated with the indicated ligands and inhibitors. […] After treatment, cells were placed on ice, the media was aspirated, and the cells were washed twice with ice-cold PBS and lysed in 100 μl of Laemmli sample buffer 1X. The lysates were briefly sonicated, heated at 95°C for 5 min, and centrifuged for 5 min at 14,000 rpm. Resulting supernatants were loaded in separate lanes of a 10% SDS-PAGE gels and electrophoresed. Next, Western transfer on to PDVF membranes was completed. The Western blots were then probed with specific antibodies targeting phosphorylated and non-phosphorylated forms of ERK1/2, c-Src, PYK2, Akt, and EGFR for primary immunodetection. After blots were probed with horseradish peroxidase-conjugated secondary antibody, protein bands were visualized with enhanced chemiluminescence ECL reagent (Amersham Pharmacia Biotech, Piscataway, NJ or Pierce Biotechnology, Rockford, IL) and scanned using the GS-800 Calibrated Imaging Densitometer (Bio-Rad). The labeled bands were quantified using the Quantity One 4.6.3 software program (Bio-Rad).
Total cell lysates were separated by SDS-PAGE and analyzed by immunoblotting with anti-p-ERK1/2 Thr^202/Tyr^204, as described in Materials and Methods. ERK1/2 phosphorylation was quantitated by densitometry, and mean values were plotted from five independent experiments.
Total cell lysates were separated by SDS-PAGE and analyzed by immunoblotting with anti-p-ERK1/2 Thr^202/Tyr^204 (A–D) or anti-p-EGFR Tyr^1068 (E), as described in Materials and Methods. ERK1/2 and EGFR phosphorylation were quantitated by densitometry, and mean values were plotted from three to five independent experiments.
Total cell lysates were separated by SDS-PAGE and analyzed by immunoblotting with anti-p-ERK1/2 Thr^202/Tyr^204, as described in Materials and Methods. ERK1/2 phosphorylation was quantitated by densitometry, and mean values were plotted from three to five independent experiments.

Test [2] concerns EGF-stimulated ERK1/2 phosphorylation. Description: Modulation of EGF-stimulated ERK1/2 phosphorylation in COS-7 cells. The note with it: GM6001 10 μM, 30 min pretreatment; 10 ng/ml EGF, 10 min. The class given is cell-based. The method, then:
as §1, with “Subsequently, cells were re-seeded in 6-well plates and cultured for an additional day prior to the experiment.” left out
(§3) The protocols for measuring total and phosphorylated ERK1/2, c-Src, PYK2, Akt, and EGFR have been previously published ([28], [29]). […] The labeled bands were quantified using the Quantity One 4.6.3 software program (Bio-Rad).
Figure 3 Involvement of EGFR transactivation in CRF-stimulated ERK1/2 phosphorylation. […] Total cell lysates were separated by SDS-PAGE and analyzed by immunoblotting with anti-p-ERK1/2 Thr^202/Tyr^204 (A–D) or anti-p-EGFR Tyr^1068 (E), as described in Materials and Methods. ERK1/2 and EGFR phosphorylation were quantitated by densitometry, and mean values were plotted from three to five independent experiments. […]

Test [3] concerns PMA-stimulated ERK1/2 phosphorylation. As to the kind of experiment: Modulation of PMA-stimulated ERK1/2 phosphorylation in COS-7 cells. Type of test: cell-based. The note with it: 30 min pretreatment, 100 nM PMA, 15 min. The method, then:
COS-7 cells (from the American Type Culture Collection) were cultured at 37°C in a humidified atmosphere of 95% air, 5% CO2, in DMEM supplemented with 10% FBS, 100 μg/ml streptomycin, and 100 units/ml penicillin (COS-7 growth medium). Transient transfections were performed using LipofectAMINE (Life Technologies: Gaithersburg, MD) as described previously ([27]). Cells were seeded at 8 × 10^5 cells/10-cm dish in COS-7 medium and cultured for 3 days before transfection. COS-7 cells were transfected in 5 ml/dish OptiMEM containing 10 μg/ml LipofectAMINE with empty vector, pcDNA3 encoding the HA-CRF1R or the HA-CRF1R-Δ386 mutant. […]
as §3
Figure 2 CRF-induced ERK1/2 phosphorylation is dependent on Gi protein. […] Total cell lysates were separated by SDS-PAGE and analyzed by immunoblotting with anti-p-ERK1/2 Thr^202/Tyr^204, as described in Materials and Methods. ERK1/2 phosphorylation was quantitated by densitometry, and mean values were plotted from five independent experiments. […]
Total cell lysates were separated by SDS-PAGE and analyzed by immunoblotting with anti-p-ERK1/2 Thr202/Tyr204, as described in materials and methods. […]

In test [4] the test system is basal ERK1/2 or Akt phosphorylation. As to the kind of experiment: Basal ERK1/2 and Akt phosphorylation in COS-7 cells expressing CRF1R. Type of test: cell-based. To be noted: 1 µM BIM, 30 min. How it is done:
as §2, with “After blots were probed with horseradish peroxidase-conjugated secondary antibody, protein bands were visualized with enhanced chemiluminescence ECL reagent (Amersham Pharmacia Biotech, Piscataway, NJ or Pierce Biotechnology, Rockford, IL) and scanned using the GS-800 Calibrated Imaging Densitometer (Bio-Rad).” left out, “(Bio-Rad). […]” for “(Bio-Rad).”
Total cell lysates were separated by SDS-PAGE and analyzed by immunoblotting with anti-p-Akt Ser473 or anti-p-ERK1/2 Thr202/Tyr204, as described in materials and methods. […]

Test [5] deals with epidermal growth factor receptor (African green monkey (endogenous in COS-7)).
The subject of test [6] is CATH.a, rat fetal microglial, locus coeruleus, and transfected CHO cells. To be noted: H89; cited from earlier work. An excerpt:
(§4) Defining the molecular mechanisms for ERK1/2 signaling by a GPCR has become a significant focus of signal transduction research due to the multifaceted pathways mediating signaling via the ERK1/2-MAP kinase cascade. A significant role of the ERK1/2-MAP kinase pathway has been recognized in the biological action of both CRF1R and CRF2R. ERK1/2 is widely distributed in the brain and is considered an essential regulator of the molecular processes involved in response to stress ([6], [64]). It is well-established that most GPCRs signal via ERK1/2-MAP kinase cascades through distinct Gi-, Gs-, and ...

Test [7] concerns fetal hippocampal cells. The note with it: H89 pretreatment; cited from earlier work.
From the text: as §4

Test [8] relates to EGFR. The note with it: Ucn1, CRF1R-expressing HEK293; cited from earlier work.
For test [9], the system named is CRF1R-expressing SK-N-MC neuroblastoma cells. As to the kind of experiment: ERK1/2 phosphorylation in CRF1R-expressing SK-N-MC neuroblastoma cells. The class given is cell-based. To be noted: 100 ng/ml FGF, 2 or 5 min. How it is done: as §2, with “After blots were probed with horseradish peroxidase-conjugated secondary antibody, protein bands were visualized with enhanced chemiluminescence ECL reagent (Amersham Pharmacia Biotech, Piscataway, NJ or Pierce Biotechnology, Rockford, IL) and scanned using the GS-800 Calibrated Imaging Densitometer (Bio-Rad).” left out
Supplementary Figure S2. […] Total cell lysates were separated by SDS-PAGE and analyzed by immunoblotting with anti-p-ERK1/2 Thr202/Tyr204, as described in materials and methods. […]

Ends that are not written are not given here.

Turning to `CNC(=O)[C@H](Cc1c[nH]c2ccccc12)NC(=O)[C@@H](CC(=O)NO)CC(C)C` [GM6001], the “effect on basal and CRF-stimulated ERK1/2 phosphorylation” value in [1] (GM6001 0–20 μM) is “not altered”. Moreover, the “effect on EGF-induced ERK1/2 phosphorylation” value in [2] is given as “significantly attenuated ERK1/2 phosphorylation induced by PMA but not EGF”. The “effect on PMA-induced ERK1/2 phosphorylation” value in test [3] (GM6001 10 μM) is listed as “significantly attenuated ERK1/2 phosphorylation induced by PMA”.
For `CN(C)CCCn1cc(C2=C(c3c[nH]c4ccccc34)C(=O)NC2=O)c2ccccc21` [BIM, bisindolylmaleimide I], in [1] (BIM 1 μM), the “CRF-stimulated ERK1/2 activation, fold increase” value is given as ~ 1.6 -fold increase over CRF stimulation. Further, the “effect on PMA-induced ERK1/2 phosphorylation” value in test [3] (BIM 1 μM) is “inhibited ERK1/2 phosphorylation resulting from PMA-induced PKC activation”. Besides, in test [4], the “effect on basal ERK1/2 activation” value was “small increase in ERK1/2 activation”.
As for “epidermal growth factor (from UniProt P01133 971-1023) (ligand)”, in test [5], the EC50 of EGF-induced ERK1/2 phosphorylation, COS-7 cells (endogenous EGFR), EGF 0-100 ng/ml for 10 min, immunoblot densitometry was found to be 0.23 ng/mL.
For `O=S(=O)(NCCNC/C=C/c1ccc(Br)cc1)c1cccc2cnccc12` [H89], the “effect on CRF-stimulated ERK1/2 phosphorylation” value in test [1] (H89 500 nM) is on record as “failed to inhibit CRF-stimulated ERK1/2 phosphorylation”. The “effect on CRF1R-mediated ERK signaling” value in test [6] is “failed to inhibit CRF1R-mediated ERK signaling”. In [7], the “effect on CRF1R-mediated ERK phosphorylation” value is recorded as “only produced a small reduction in CRF1R-mediated ERK phosphorylation”.
With “Ucn1: urocortin 1 (DNPSLSIDLTFHLLRTLLELARTQSQRERAEQNRIIFDSV; ends and bridges not checked; UniProt P55089 83-122, looked up)”, in test [8], the EGFR transactivation result was “stimulated EGFR transactivation”.
fibroblast growth factor: the ERK1/2 phosphorylation result in test [9] was “induced strong ERK1/2 phosphorylation”.

Values taken from publication PMC6921279 (Frontiers in Endocrinology, 2019).
